According to patent publication US10221198B2, “Preparation and medical use of triazenes” (Ecole Polytechnique Federale De Lausanne (EPFL), priority 2014, dated 2019):

Experiments:
Type in all cases: cell-based
[1] = tested on: human ovarian cancer cells (A2780); assay: Cytotoxicity test (MTT assay) on A2780 cells; conditions: 72 h exposure
Description: (§1) MDA-MB-231 breast adenocarcinoma cells (ATCC® HTB-26™), MCF-10a human mammary epithelial cells (ATCC® CRL-10317™) and HEK293 human embryonic kidney cells (ATCC® CRL-1573™) were obtained from ATCC (Middlesex, UK), the A2780 human ovarian carcinoma cell line was obtained from the European Collection of Cell Cultures (catalogue number 93112519, Salisbury, U.K.). All cell culture media were purchased from Life Technologies (Zug, Switzerland). A2780 cells were cultured in RPMI-1640 medium (Gibco, GlutaMax), while MDA-MB-231 and HEK293 cells were cultured in Dulbecco's Modified Eagle Medium (DMEM, Gibco, GlutaMax) supplemented with 10% fetal bovine serum (FBS, Sigma-Aldrich, Buchs, Switzerland) and 1% penicillin/streptomycin (Life Technologies, Zug, Switzerland). MCF-10A were cultured in DMEM/F12 medium containing 10% horse serum and 1% antibiotics, supplemented with 10 μg/mL insulin, 20 μg/mL hydrocortisone, 20 ng/mL epidermal growth factor and 100 ng/mL cholera toxin (all from Sigma Aldrich, Buchs, Switzerland). Cells were incubated in a CO2 incubator with 5% CO2 and 100% relative humidity at 37° C. MTT (MTT=3-(4,5-dimethyl-2-thiazolyl)-2,5-diphenyl-2H-tetrazolium bromide) was purchased from Calbiochem (Zug, Switzerland). Cell viability was determined by the MTT assay. The absorption was read using a SpectraMax M52 microplate reader (Molecular Devices, Sunnyvale, Calif., USA).
(§2) Cells were seeded in 96-well plates as monolayers with 100 μL of cell suspension (approximately 5000 cells) per well and preincubated for 24 h in medium supplemented with 10% FBS. With the exception of dacarbazine, all compounds were dissolved in DMSO. In the case of dacarbazine, an aqueous stock solution of the monocitrate was prepared in situ and immediately used (light sensitivity). The stock solutions were serially diluted in the culture medium to the appropriate concentration, to give a final DMSO concentration of no higher than 0.5%. 100 μL of the compound solution was added to each well, and the plates were incubated for 72 h. Subsequently, MTT (5 mg/mL solution) was added to the cells and the plates were incubated for a further 2 h. The culture medium was aspirated and the purple formazan crystals formed by the mitochondrial dehydrogenase activity of vital cells were dissolved in DMSO. The optical density, directly proportional to the number of surviving cells, was quantified at 590 nm using a multiwell plate reader, and the fraction of surviving cells was calculated from the absorbance of untreated control cells. Evaluation is based on means from at least two independent experiments, each comprising triplicates per concentration level.

[2] = tested on: human invasive breast cancer cells (MDA-MB-231); assay: Cytotoxicity test (MTT assay) on MDA-MB-231 cells; conditions: for IC50: MDA-MB-231, 72 h exposure, MTT assay, human invasive breast cancer cells; for SC, selectivity coefficient, IC50 MCF-10A/IC50 MDA-MB-231: ratio of 72 h IC50 values, MCF-10A over MDA-MB-231
Description: as §1, §2

[3] = tested on: non-cancer human embryonic kidney cells (HEK293); assay: Cytotoxicity test (MTT assay) on HEK293 cells; conditions: 72 h exposure
Description: as §1, §2

[4] = tested on: human mammary epithelial cells (MCF-10A); assay: Cytotoxicity test (MTT assay) on MCF-10A cells; conditions: 72 h exposure
Description: as §1, §2

| SMILES | IC50 [1] [µM] | IC50 [2] [µM] | IC50 [3] [µM] | IC50 [4] [µM] | SC, selectivity coefficient, IC50 MCF-10A/IC50 MDA-MB-231 [2] |
| --- | --- | --- | --- | --- | --- |
| CC(C)N(N=NC#Cc1ccccc1)C(C)C [Compound 1, 3,3-Diisopropyl-1-(phenylethynyl)triaz-1-ene] | 56 ± 4 | > 500 | 44 ± 11 | 116 ± 2 | – |
| CC(C)N(N=NC#CC(C)(C)C)C(C)C [Compound 2, 1-(3,3-Dimethylbut-1-ynyl)-3,3-diisopropyltriaz-1-ene] | 160 ± 40 | 176 ± 60 | 125 ± 5 | 299 ± 43 | 1.7 |
| CC(C)N(C)N=NC#CC(C)(C)C [Compound 4, 1-(3,3-Dimethylbut-1-ynyl)-3-isopropyl-3-methyltriaz-1-ene] | 32 ± 4 | 70 ± 10 | 29 ± 4 | 192 ± 12 | 2.7 |
| CN(C)N=NC#CC(C)(C)C [Compound 5, 1-(3,3-Dimethylbut-1-ynyl)-3,3-dimethyltriaz-1-ene] | 22 ± 3 | 38 ± 3 | 19 ± 2 | 52 ± 11 | 1.4 |
| CCCCC#CN=NN(C(C)C)C(C)C [Compound 6, 1-(Hex-1-ynyl)-3,3-diisopropyltriaz-1-ene] | 143 ± 29 | 199 ± 21 | 165 ± 65 | 254 ± 52 | 1.2 |
| COCC#CN=NN(C)C(C)C [Compound 9, 3-Isopropyl-1-(3-methoxyprop-1-ynyl)-3-methyltriaz-1-ene] | 20 ± 3 | 32 ± 4 | 14 ± 1 | 208 ± 49 | 6.5 |
| CC(C)N(C)N=NC#CCN(C)C [Compound 10, 3-(3-Isopropyl-3-methyltriaz-1-enyl)-N,N-dimethylprop-2-yn-1-amine] | 34 ± 4 | 14 ± 2 | 21 ± 5 | 86 ± 4 | 6.1 |
| COCC#CN=NN(C)C [Compound 14, 1-(3-Methoxyprop-1-ynyl)-3,3-dimethyltriaz-1-ene] | 43 ± 6 | 72 ± 9 | 24 ± 4 | 177 ± 23 | 2.5 |
| CN(C)CC#CN=NN(C)C [Compound 15, 3-(3,3-Dimethyltriaz-1-enyl)-N,N-dimethylprop-2-yn-1-amine] | 47 ± 3 | 45 ± 15 | 15 ± 4 | 113 ± 7 | 2.4 |
